The experiment deals with IL2 release from Jurkat cells. Put plainly: Effect of compounds on IL-2 secretion in T lymphocytes (Jurkat 6.1, anti-CD3/anti-CD28 stimulated, ELISA). It is filed as cell-based. The following applies: for activity at 1 µM / activity at 10 µM: Homo sapiens, Jurkat, read-out: IL2 release as percentage of anti-CD3/CD28 stimulated release in presence of DMSO, Mean; for activity at 1 µM / activity at 10 µM / IL-2 production, absolute values: 24 h; for IL-2 production, absolute values: 30 min pre-treatment, DMSO control 320.67 (plate 2), 338.25 (plate 3); for effect on IL2 release, in words: 1 and 10 μM. As for the experimental part:
The T cell line Jurkat 6.1 (ATCC) was used. Cells were pre-treated for 30 min with 1 μM or 10 μM of the respective compound and then stimulated with plate-bound anti-CD3 (BD Pharmingen) and anti-CD28 (AnCell). DMSO was used as vehicle control. […] After 24 hs the supernatant was collected and IL-2 secretion was measured by ELISA.
Compounds were prepared by dissolution in DMSO to yield final concentrations of 1 and 10 μg/ml
A general note: In an ELISA, binding on a coated surface is turned into a signal by an enzyme label.

Regarding `CCOC(=O)c1ccc(C[C@@]2(C3=Cc4ccccc4C3)Cc3ccccc3[C@H]2OC(=O)[C@@H](N)CC(C)C)cc1` [Compound 40, ethyl 4-(((1S,2S)-1-(((S)-2-amino-4-methylpentanoyl)oxy)-2,3-dihydro-1H,1′H-[2,2′-biinden]-2-yl)methyl)benzoate], the activity at 1 µM stood at 82.6% and the activity at 10 µM was found to be 20.9%. Besides, where the note is “compound 1 uM”, the “IL-2 production, absolute values” was 84.86 pg/mL. For the setting “compound 10 uM”, the “IL-2 production, absolute values” came to 12.71 pg/mL.

Take `CC(C)C[C@H](N)C(=O)O[C@@H]1c2ccccc2C[C@@]1(Cc1ccc(C(=O)NCCO)cc1)C1=Cc2ccccc2C1` [Compound 43, (1S,2S)-2-{4-[(2-Hydroxyethyl)carbamoyl]benzyl}-2,3-dihydro-1H,1′H-2,2′-biinden-1-yl leucinate]: the “effect on IL2 release, in words” value was “greatest inhibition of IL2 release”; the activity at 1 µM turned out to be 72.4%; the activity at 10 µM worked out at 8.4%. Also, the “IL-2 production, absolute values” (compound 1 uM) came out at 97.57 pg/mL. For the same compound, the “IL-2 production, absolute values” (compound 10 uM) was found to be 12.79 pg/mL.

On to `CCCOC(=O)c1ccc(C[C@]2(C3=Cc4ccccc4C3)Cc3ccccc3[C@@H]2O)cc1` [Compound 12, propyl 4-(((1R,2R)-1-hydroxy-2,3-dihydro-1H,1′H-[2,2′-biinden]-2-yl)methyl)benzoate], for which the “IL-2 production, absolute values” (compound 1 uM) was 240.22 pg/mL and the “IL-2 production, absolute values” (compound 10 uM) was 132.44 pg/mL.

On to `CCCOC(=O)c1ccc(C[C@@]2(C3=Cc4ccccc4C3)Cc3ccccc3[C@H]2O)cc1` [Compound 19, propyl 4-(((1S,2S)-1-hydroxy-2,3-dihydro-1H,1′H-[2,2′-biinden]-2-yl)methyl)benzoate], for which the “IL-2 production, absolute values” is, setting by setting: (compound 1 uM) 174.44 pg/mL; (compound 10 uM) 81.00 pg/mL.

In the case of `CCCOC(=O)c1ccc(C[C@]2(C3=Cc4ccccc4C3)Cc3ccccc3[C@@H]2OC(=O)[C@@H](N)CC(C)C)cc1` [Compound 34, propyl 4-(((1R,2R)-1-(((S)-2-amino-4-methylpentanoyl)oxy)-2,3-dihydro-1H,1′H-[2,2′-biinden]-2-yl)methyl)benzoate], the activity at 1 µM stood at 95.8% and the activity at 10 µM worked out at 51.5%. Besides, for the setting “compound 1 uM”, the “IL-2 production, absolute values” came to 173.25 pg/mL. Also, the “IL-2 production, absolute values” (compound 10 uM) is 71.38 pg/mL.

As for `CC(C)C[C@H](N)C(=O)O[C@@H]1c2ccccc2C[C@@]1(Cc1ccc(C(N)=O)cc1)C1=Cc2ccccc2C1` [Compound 42, (1S,2S)-2-(4-carbamoylbenzyl)-2,3-dihydro-1H,1′H-2,2′-biinden-1-yl L-leucinate], the activity at 1 µM came to 76.1% and the activity at 10 µM came out at 30%. Moreover, for the setting “compound 1 uM”, the “IL-2 production, absolute values” is 77.71 pg/mL. Moreover, the “IL-2 production, absolute values” (compound 10 uM) is 49.57 pg/mL.

As to `CCOC(=O)c1ccc(C[C@]2(C3=Cc4ccccc4C3)Cc3ccccc3[C@@H]2OC(=O)[C@@H](N)CC(C)C)cc1` [Compound 33, ethyl 4-(((1R,2R)-1-(((S)-2-amino-4-methylpentanoyl)oxy)-2,3-dihydro-1H,1′H-[2,2′-biinden]-2-yl)methyl)benzoate], the activity at 1 µM stood at 89.4% and the activity at 10 µM is 43.6%. Further, the “IL-2 production, absolute values” (compound 1 uM) is 186.25 pg/mL. Moreover, where the note is “compound 10 uM”, the “IL-2 production, absolute values” came to 74.38 pg/mL.

`CNC(=O)c1ccc(C[C@]2(C3=Cc4ccccc4C3)Cc3ccccc3[C@@H]2O)cc1` [Compound 15, 4-{[(1′R,2′R)-1′-hydroxy-1′,3′-dihydro-1H,2′H-2,2′-biinden-2′-yl]methyl}-N-methylbenzamide]: the “IL-2 production, absolute values” stood at 207.78 pg/mL (compound 1 uM) and 113.67 pg/mL (compound 10 uM).

Regarding `O=C(Nc1ccc(O)c(C(=O)O)c1)c1ccc(C[C@]2(C3=Cc4ccccc4C3)Cc3ccccc3[C@@H]2O)cc1` [Compound 46, 2-hydroxy-5-(4-(((1R,2R)-1-hydroxy-2,3-dihydro-1H,1′H-[2,2′-biinden]-2-yl)methyl)benzamido)benzoic acid], the “IL-2 production, absolute values” amounted to 92.21 pg/mL (compound 1 uM) and 72.07 pg/mL (compound 10 uM).

For `CC(C)C[C@H](N)C(=O)O[C@H]1c2ccccc2C[C@]1(Cc1ccc(C(=O)NCCO)cc1)C1=Cc2ccccc2C1` [Compound 36, (1R,2R)-2-{4-[(2-hydroxyethyl)carbamoyl]benzyl}-2,3-dihydro-1H,1′H-2,2′-biinden-1-yl L-leucinate], the activity at 1 µM was 96% and the activity at 10 µM was found to be 56.3%. For the same compound, the “IL-2 production, absolute values” (compound 1 uM) turned out to be 207.38 pg/mL. For the same compound, the “IL-2 production, absolute values” (compound 10 uM) came out at 138.13 pg/mL.

Take `CC(C)C[C@H](N)C(=O)O[C@H]1c2ccccc2C[C@]1(Cc1ccc(C(=O)N(C)C)cc1)C1=Cc2ccccc2C1` [Compound 38, (1R,2R)-2-[4-(dimethylcarbamoyl)benzyl]-2,3-dihydro-1H,1′H-2,2′-biinden-1-yl L-leucinate]: the “effect on IL2 release, in words” value is “inactive”; the activity at 1 µM was 107%; the activity at 10 µM worked out at 62.7%. Further, for the setting “compound 1 uM”, the “IL-2 production, absolute values” came to 226.75 pg/mL. For the same compound, the “IL-2 production, absolute values” (compound 10 uM) turned out to be 268.63 pg/mL.

Consider `CC(C)C[C@H](N)C(=O)O[C@@H]1c2ccccc2C[C@@]1(Cc1ccc(C(=O)O)cc1)C1=Cc2ccccc2C1` [Compound 28, 4-{[(1′S,2′S)-1′-(L-leucyloxy)-1′,3′-dihydro-1H,2′H-2,2′-biinden-2′-yl]methyl}benzoic acid], for which the “IL-2 production, absolute values” runs as follows: (compound 1 uM) 214.75 pg/mL; (compound 10 uM) 135.63 pg/mL.

On to `NCC(=O)O[C@H]1c2ccccc2C[C@]1(Cc1ccc(C(=O)O)cc1)C1=Cc2ccccc2C1` [Compound 27, 4-{[(1′R,2′R)-1′-(glycyloxy)-1′,3′-dihydro-1H,2′H-2,2′-biinden-2′-yl]methyl}benzoic acid], for which the “effect on IL2 release, in words” value is “potentiates release of IL2”. In addition, the “IL-2 production, absolute values” (compound 1 uM) was 350.13 pg/mL. In addition, the “IL-2 production, absolute values” (compound 10 uM) stood at 172.88 pg/mL.

Regarding `CN(C)C(=O)c1ccc(C[C@@]2(C3=Cc4ccccc4C3)Cc3ccccc3[C@H]2O)cc1` [Compound 23, 4-{[(1′S,2′S)-1′-hydroxy-1′,3′-dihydro-1H,2′H-2,2′-biinden-2′-yl]methyl}-N,N-dimethylbenzamide], the “IL-2 production, absolute values” by setting is: (compound 1 uM) 191.44 pg/mL; (compound 10 uM) 193.56 pg/mL.

For the origin of these results see patent US20150141506A1, “INDANE DIMERS FOR USE IN THE TREATMENT OF AUTOIMMUNE INFLAMMATORY DISEASE” (Venantius Limited, priority 2012, published 2015).
